Measured values published in paper PMC8745178, “Methyl 2-Halo-4-Substituted-5-Sulfamoyl-Benzoates as High Affinity and Selective Inhibitors of Carbonic Anhydrase IX” (International Journal of Molecular Sciences, 2021).

What was measured:
[1] = determination of pKa of the sulfonamide group by UV-VIS spectra at various pH; format: physicochemical; conditions: for f RSO2NH-, fraction of deprotonated sulfonamide: at pH 7.0, calculated from pKa; for pKa: calculated from spectra at various pH, 37 °C
CAIX = CAIX (Homo sapiens, UniProt Q16790); test: fluorescent thermal shift assay (FTSA), CAIX; format: binding; conditions: for ΔGobs CAIX: pH 7
CAVII = CAVII (Homo sapiens, UniProt P43166); test: fluorescent thermal shift assay (FTSA), CAVII; format: binding; conditions: 37 °C; for ΔGintr CAVII: converted from Kd_intr, independent of pH; for ΔGobs CAVII: converted from Kd_obs, pH 7.0, FTSA
CAIII = CAIII (Homo sapiens, UniProt P07451); test: fluorescent thermal shift assay (FTSA), CAIII; format: binding; conditions: 37 °C; for ΔGintr CAIII: converted from Kd_intr, independent of pH; for ΔGobs CAIII: converted from Kd_obs, pH 7.0, FTSA
CAVB = CAVB (Homo sapiens, UniProt Q9Y2D0); test: fluorescent thermal shift assay (FTSA), CAVB; format: binding; conditions: 37 °C; for ΔGintr CAVB: converted from Kd_intr, independent of pH; for ΔGobs CAVB: converted from Kd_obs, pH 7.0, FTSA
CAXIV = CAXIV (Homo sapiens, UniProt Q9ULX7); test: fluorescent thermal shift assay (FTSA), CAXIV; format: binding; conditions: 37 °C; for ΔGintr CAXIV: converted from Kd_intr, independent of pH; for ΔGobs CAXIV: converted from Kd_obs, pH 7.0, FTSA
CAI = CAI (Homo sapiens, UniProt P00915); test: fluorescent thermal shift assay (FTSA), CAI; format: binding; conditions: 37 °C; for ΔGintr CAI: converted from Kd_intr, independent of pH; for ΔGobs CAI: converted from Kd_obs, pH 7.0, FTSA
CAVA = CAVA (Homo sapiens, UniProt P35218); test: fluorescent thermal shift assay (FTSA), CAVA; format: binding; conditions: 37 °C; for ΔGintr CAVA: converted from Kd_intr, independent of pH; for ΔGobs CAVA: converted from Kd_obs, pH 7.0, FTSA
CAVI = CAVI (Homo sapiens, UniProt P23280); test: fluorescent thermal shift assay (FTSA), CAVI; format: binding; conditions: 37 °C; for ΔGintr CAVI: converted from Kd_intr, independent of pH; for ΔGobs CAVI: converted from Kd_obs, pH 7.0, FTSA
CAXIII = CAXIII (Homo sapiens, UniProt Q8N1Q1); test: fluorescent thermal shift assay (FTSA), CAXIII; format: binding; conditions: 37 °C; for ΔGintr CAXIII: converted from Kd_intr, independent of pH; for ΔGobs CAXIII: converted from Kd_obs, pH 7.0, FTSA
CAII = CAII (Homo sapiens, UniProt P00918); test: fluorescent thermal shift assay (FTSA), CAII; format: binding; conditions: 37 °C; for ΔGintr CAII: converted from Kd_intr, independent of pH; for ΔGobs CAII: converted from Kd_obs, pH 7.0, FTSA

Chain of CAIII (P07451 whole entry): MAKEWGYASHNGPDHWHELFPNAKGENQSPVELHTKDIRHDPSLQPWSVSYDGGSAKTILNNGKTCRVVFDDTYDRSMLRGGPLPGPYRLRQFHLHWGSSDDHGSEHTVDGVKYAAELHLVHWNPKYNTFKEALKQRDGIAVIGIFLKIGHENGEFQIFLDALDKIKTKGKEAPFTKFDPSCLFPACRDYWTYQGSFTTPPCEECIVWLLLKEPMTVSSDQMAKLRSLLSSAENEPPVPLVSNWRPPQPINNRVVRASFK
Chain of CAVB (Q9Y2D0 34-317): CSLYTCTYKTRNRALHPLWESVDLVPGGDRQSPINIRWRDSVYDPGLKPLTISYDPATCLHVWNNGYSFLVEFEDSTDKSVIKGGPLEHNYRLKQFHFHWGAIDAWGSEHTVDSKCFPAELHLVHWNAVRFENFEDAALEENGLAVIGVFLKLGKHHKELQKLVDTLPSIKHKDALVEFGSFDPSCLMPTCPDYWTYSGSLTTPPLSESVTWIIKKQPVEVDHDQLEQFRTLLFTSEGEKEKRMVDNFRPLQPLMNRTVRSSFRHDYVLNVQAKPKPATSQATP
Chain of CAXIV (Q9ULX7 16-337): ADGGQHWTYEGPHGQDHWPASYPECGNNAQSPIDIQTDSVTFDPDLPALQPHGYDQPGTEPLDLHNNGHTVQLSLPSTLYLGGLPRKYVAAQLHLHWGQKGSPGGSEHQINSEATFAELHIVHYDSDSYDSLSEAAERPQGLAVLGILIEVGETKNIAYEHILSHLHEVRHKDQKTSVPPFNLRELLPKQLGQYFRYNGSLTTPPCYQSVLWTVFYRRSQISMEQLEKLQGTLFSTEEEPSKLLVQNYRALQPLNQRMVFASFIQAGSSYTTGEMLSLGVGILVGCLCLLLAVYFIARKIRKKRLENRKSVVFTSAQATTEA
Chain of CAVA (P35218 39-305): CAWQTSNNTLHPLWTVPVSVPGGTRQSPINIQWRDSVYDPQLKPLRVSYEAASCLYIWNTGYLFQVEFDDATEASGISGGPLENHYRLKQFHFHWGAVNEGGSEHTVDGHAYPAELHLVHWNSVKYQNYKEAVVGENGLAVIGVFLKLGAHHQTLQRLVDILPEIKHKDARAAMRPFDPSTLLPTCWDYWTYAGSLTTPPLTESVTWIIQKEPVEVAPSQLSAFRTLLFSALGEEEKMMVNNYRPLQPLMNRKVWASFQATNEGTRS
Chain of CAI (P00915 whole entry): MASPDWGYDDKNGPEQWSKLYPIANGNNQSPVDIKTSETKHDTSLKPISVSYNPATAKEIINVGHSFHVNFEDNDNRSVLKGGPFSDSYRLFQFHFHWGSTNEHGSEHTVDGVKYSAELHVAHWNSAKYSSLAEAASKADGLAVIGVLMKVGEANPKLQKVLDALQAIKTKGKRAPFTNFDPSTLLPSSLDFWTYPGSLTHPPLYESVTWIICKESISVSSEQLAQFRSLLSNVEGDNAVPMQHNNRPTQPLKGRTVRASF
Chain of CAVII (P43166 whole entry): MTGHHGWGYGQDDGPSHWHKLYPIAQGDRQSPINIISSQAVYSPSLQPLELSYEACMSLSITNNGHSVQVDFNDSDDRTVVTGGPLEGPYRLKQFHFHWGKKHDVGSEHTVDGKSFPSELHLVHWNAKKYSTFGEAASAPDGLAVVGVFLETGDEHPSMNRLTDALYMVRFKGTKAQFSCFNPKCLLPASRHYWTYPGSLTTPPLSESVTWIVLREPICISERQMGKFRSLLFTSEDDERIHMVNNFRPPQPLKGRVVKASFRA
Chain of CAVI (P23280 18-308): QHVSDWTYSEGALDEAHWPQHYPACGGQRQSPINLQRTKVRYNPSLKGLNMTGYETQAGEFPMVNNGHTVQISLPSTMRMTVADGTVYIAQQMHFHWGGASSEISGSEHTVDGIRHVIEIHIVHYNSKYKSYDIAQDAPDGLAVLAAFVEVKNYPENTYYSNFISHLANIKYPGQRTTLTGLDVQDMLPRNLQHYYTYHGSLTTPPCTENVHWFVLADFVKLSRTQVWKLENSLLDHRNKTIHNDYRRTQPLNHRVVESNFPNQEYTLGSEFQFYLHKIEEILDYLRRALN
Chain of CAXIII (Q8N1Q1 whole entry): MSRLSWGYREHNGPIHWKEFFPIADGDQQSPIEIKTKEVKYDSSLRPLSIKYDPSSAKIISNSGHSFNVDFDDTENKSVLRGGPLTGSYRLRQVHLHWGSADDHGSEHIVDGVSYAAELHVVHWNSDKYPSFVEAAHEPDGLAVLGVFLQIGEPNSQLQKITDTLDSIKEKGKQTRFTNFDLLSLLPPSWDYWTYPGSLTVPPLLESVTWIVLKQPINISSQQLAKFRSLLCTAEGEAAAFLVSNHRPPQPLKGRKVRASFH

| Structure (SMILES) | f RSO2NH-, fraction of deprotonated sulfonamide [1] [%] | pKa [1] | ΔGintr CAIX (CAIX) | ΔGobs CAIX (CAIX) [kJ/mol] | ΔGintr CAVII (CAVII) [kJ/mol] | ΔGobs CAVII (CAVII) [kJ/mol] | ΔGintr CAIII (CAIII) [kJ/mol] | ΔGobs CAIII (CAIII) [kJ/mol] | ΔGintr CAVB (CAVB) [kJ/mol] | ΔGobs CAVB (CAVB) [kJ/mol] | ΔGintr CAXIV (CAXIV) [kJ/mol] | ΔGobs CAXIV (CAXIV) [kJ/mol] | ΔGintr CAI (CAI) [kJ/mol] | ΔGobs CAI (CAI) [kJ/mol] | ΔGintr CAVI (CAVI) [kJ/mol] | ΔGobs CAVI (CAVI) [kJ/mol] | ΔGintr CAXIII (CAXIII) [kJ/mol] | ΔGobs CAXIII (CAXIII) [kJ/mol] | ΔGintr CAII (CAII) [kJ/mol] | ΔGobs CAII (CAII) [kJ/mol] | other results |
| --- | --- | --- | --- | --- | --- | --- | --- | --- | --- | --- | --- | --- | --- | --- | --- | --- | --- | --- | --- | --- | --- |
| COC(=O)c1cc(S(N)(=O)=O)c(SCc2ccccc2)cc1Cl [Compound 3c, Methyl 4-(benzylsulfanyl)-2-chloro-5-sulfamoylbenzoate] | 0.3 | 9.5 | -68.8 kJ/mol | -50.7 | -57.8 | -40.5 | -42.9 | -24.3 | -48.1 | -31.5 | -61.2 | -43.9 | -45.7 | -30.6 | -59.3 | -38.3 | -59.1 | -44.0 | -58.2 | -41.3 | ΔGintr CAVA (CAVA): ≥ -37.9 kJ/mol; ΔGobs CAVA (CAVA): ≥ -22.0 kJ/mol |
| COC(=O)c1cc(S(N)(=O)=O)c(Cl)cc1S(=O)(=O)CCc1ccccc1 [Compound 9d, Methyl 4-chloro-2-(2-phenylethylsulfonyl)-5-sulfamoylbenzoate] | 3.8 | 8.4 |  | -51.1 | -64.7 | -53.8 | -47.9 | -35.8 |  | -53.2 | -63.7 | -52.8 | -47.1 | -38.5 | -59.6 | -45.0 | -59.3 | -50.6 | -62.6 | -52.1 | ΔGintr CAVA (CAVA): -49.2 kJ/mol; ΔGobs CAVA (CAVA): -39.8 kJ/mol |
| COC(=O)c1cc(S(N)(=O)=O)c(Br)cc1S(=O)(=O)c1ccccc1 [Compound 10a, Methyl 2-(benzenesulfonyl)-4-bromo-5-sulfamoylbenzoate] | 3.8 | 8.4 | -62.0 | -50.3 | -65.3 | -54.5 |  |  | -59.4 | -49.2 | -62.5 | -51.6 | -47.1 | -38.5 | -56.0 | -41.4 | -58.3 | -49.6 | -61.8 | -51.3 |  |
| COC(=O)c1cc(S(N)(=O)=O)c(SC2CCCCC2)cc1Br [Compound 4b, Methyl 2-bromo-4-(cyclohexylsulfanyl)-5-sulfamoylbenzoate] | 0.3 |  | -77.6 kJ/mol | -59.0 | -57.4 | -39.5 | -44.8 | -25.7 | -49.8 | -32.5 | -63.6 | -45.7 | -46.4 | -30.7 | -58.8 | -37.1 | -60.1 | -44.4 | -57.3 | -39.8 | ΔGintr CAVA (CAVA): ≥ -38.5 kJ/mol; ΔGobs CAVA (CAVA): ≥ -22.0 kJ/mol |
